According to the supplement of paper PMC10307832:

Key:
Assay in all cases: relative viability (nuclei count vs DMSO), 5 days (fraction); higher = more cells survive
Olaparib + Pemetrexed = compound: O=C(c1cc(Cc2n[nH]c(=O)c3ccccc23)ccc1F)N1CCN(C(=O)C2CC2)CC1 [Olaparib] + Nc1nc2[nH]cc(CCc3ccc(C(=O)N[C@@H](CCC(=O)O)C(=O)O)cc3)c2c(=O)[nH]1 [Pemetrexed] (partner 0.2 µM)
Outline: (§1)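 Lung cancer cell lines in 1536-well plates were dosed by pin tool the day after seeding, either with one drug alone or with a fixed anchor-drug dose plus five library-drug doses (not always all listed) in √10 steps. After 5 days, cells were fixed and their nuclei stained in one step (final 0.05% Triton X-100, 1% formaldehyde, 1 ug/ml Hoechst), then counted on 4× images. Relative viability is the nuclei count in treated wells divided by that in vehicle wells. Values are medians of duplicate plates.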

Crizotinib + Bortezomib = compound: C[C@@H](Oc1cc(-c2cnn(C3CCNCC3)c2)cnc1N)c1c(Cl)ccc(F)c1Cl [Crizotinib] + CC(C)C[C@H](NC(=O)[C@H](Cc1ccccc1)NC(=O)c1cnccn1)B(O)O [Bortezomib] (partner 0.002 µM)
Outline: as §1

Olaparib + Palbociclib = compound: O=C(c1cc(Cc2n[nH]c(=O)c3ccccc23)ccc1F)N1CCN(C(=O)C2CC2)CC1 [Olaparib] + CC(=O)c1c(C)c2cnc(Nc3ccc(N4CCNCC4)cn3)nc2n(C2CCCC2)c1=O [Palbociclib] (partner 0.5 µM)
Outline: as §1

Carfilzomib + Phenformin = compound: CC(C)C[C@H](NC(=O)[C@H](CCc1ccccc1)NC(=O)CN1CCOCC1)C(=O)N[C@@H](Cc1ccccc1)C(=O)N[C@@H](CC(C)C)C(=O)[C@@]1(C)CO1 [Carfilzomib] + N=C(N)NC(=N)NCCc1ccccc1 [Phenformin] (partner 250 µM)
Outline: as §1

Row | Cell Line | relative viability (Olaparib + Pemetrexed; first compound 0.08 µM) | relative viability (Olaparib + Pemetrexed; first compound 0.253 µM) | relative viability (Olaparib + Pemetrexed; first compound 2.53 µM) | relative viability (Olaparib + Pemetrexed; first compound 8 µM) | relative viability (Crizotinib + Bortezomib; first compound 0.01 µM) | relative viability (Crizotinib + Bortezomib; first compound 0.03162 µM) | relative viability (Crizotinib + Bortezomib; first compound 0.1 µM) | relative viability (Crizotinib + Bortezomib; first compound 0.3162 µM) | relative viability (Crizotinib + Bortezomib; first compound 1 µM) | relative viability (Olaparib + Palbociclib; first compound 0.08 µM) | relative viability (Olaparib + Palbociclib; first compound 0.253 µM) | relative viability (Olaparib + Palbociclib; first compound 2.53 µM) | relative viability (Olaparib + Palbociclib; first compound 8 µM) | relative viability (Carfilzomib + Phenformin; first compound 0.001 µM) | relative viability (Carfilzomib + Phenformin; first compound 0.01 µM) | relative viability (Carfilzomib + Phenformin; first compound 0.03162 µM) | relative viability (Carfilzomib + Phenformin; first compound 0.1 µM) | relative viability (Carfilzomib + Phenformin; first compound 0.003162 µM)
1 | NCI-H2347 | 0.474 | 0.476 | 0.435 | 0.397 | 1.02 | 0.919 | 1.15 | 0.95 | 1.14 | 0.381 | 0.431 | 0.393 | 0.409 | 0.274 | 0.341 | 0.163 | 0.141 | 
2 | NCI-H2405 | 1.02 | 0.931 | 1.02 | 1.01 | 1 | 0.997 | 1.04 | 1.09 |  | 0.577 | 0.497 | 0.491 | 0.496 |  | 0.395 | 0.298 | 0.129 | 0.432
3 | NCI-H3122 | 0.202 | 0.194 | 0.191 | 0.18 | 0.96 | 0.942 | 1.09 | 0.889 | 0.989 | 0.206 | 0.193 | 0.194 | 0.188 | 0.375 | 0.366 | 0.278 | 0.0931 | 0.446
4 | PC-3 [JPC-3] | 1.1 |  | 1.26 | 1.05 | 0.772 | 0.948 | 0.833 | 0.878 | 0.837 | 0.531 |  | 0.52 | 0.534 | 0.487 | 0.464 | 0.432 | 0.261 | 0.461
5 | PC-14 | 0.131 | 0.14 | 0.135 | 0.139 | 0.892 | 0.742 | 0.905 | 0.805 | 0.961 | 0.614 | 0.401 | 0.366 | 0.212 | 0.549 | 0.557 | 0.115 | 0.0595 | 0.774
6 | RERF-LC-KJ | 0.527 | 0.477 | 0.481 | 0.449 | 1.02 | 0.951 | 1.1 | 1 | 1.09 | 1.17 | 0.964 | 1.08 | 1.02 | 0.44 | 0.419 | 0.354 | 0.236 | 0.421
7 | SK-LU-1 | 1.12 | 0.865 | 0.866 | 0.635 | 1.19 | 1.13 | 1.46 | 0.794 | 1.3 | 0.452 | 0.346 | 0.419 | 0.343 | 0.458 | 0.48 | 0.0958 | 0.114 | 0.529
8 | SW 1573 | 0.903 | 0.899 | 0.779 | 0.597 |  | 1.04 | 1.04 | 1.19 | 0.836 | 0.468 | 0.377 | 0.338 | 0.252 | 0.341 | 0.251 | 0.0664 | 0.0618 | 0.43
9 | UMC-11 | 0.806 | 0.683 | 0.691 | 0.537 | 0.615 | 0.989 | 0.695 | 0.199 | 0.9 | 0.286 |  | 0.317 | 0.31 | 0.318 | 0.295 | 0.293 | 0.162 | 0.33
